# Literature values in patent US20060269513A1, “Pheromone composition” (Kiotech Limited, priority 1997, published 2006).
# Tested on: humans
# Details: human olfactory threshold
row,Compound,Threshold concentration for humans (odour)
1,CCCCC(C)CCC(=O)O (stereo not shown) [4-Methyloctanoic acid],in the region of ppb
2,C[C@]12CC[C@@H](O)C[C@@H]1CC[C@@H]1[C@@H]2CC[C@]2(C)C=CC[C@@H]12 [5-alpha-androst-16-en-3-α-ol],in the low ppb range
3,CN(C)C [Trimethylamine],about 1 ppb
4,"NCCCCN [putrescine, 1,4-diaminobutane]",in the ppb range
